We go through 1 molecule from ChEMBL document CHEMBL1126995, “Nonpeptide -turn mimetics of enkephalin” (1993).

Assay [1] addresses Mu-type opioid receptor (Rattus norvegicus) (UniProt P33535). Kind of assay: Binding affinity against mu opioid receptors from rat brain (minus cerebellum) using [3H]DAMGO (2.0 nM) at 10 uM. Type of assay: tissue-based.
The species entered for another assay is Mus musculus. Kind of assay: Tested for the analgesic activity in mouse writhing assay. It is filed as functional. In general terms: Writhing tests count abdominal constrictions after an irritant is injected.
Assay [2] concerns the target Delta-type opioid receptor (Rattus norvegicus) (UniProt P33533). Kind of assay: Binding affinity against Opioid receptor delta 1 from rat brain using (1.0 nM [3H]DTLET or 1.0 nM [3H]-DSLET) at 6 uM.

Chain of Delta-type opioid receptor (Rattus norvegicus) (P33533 whole entry): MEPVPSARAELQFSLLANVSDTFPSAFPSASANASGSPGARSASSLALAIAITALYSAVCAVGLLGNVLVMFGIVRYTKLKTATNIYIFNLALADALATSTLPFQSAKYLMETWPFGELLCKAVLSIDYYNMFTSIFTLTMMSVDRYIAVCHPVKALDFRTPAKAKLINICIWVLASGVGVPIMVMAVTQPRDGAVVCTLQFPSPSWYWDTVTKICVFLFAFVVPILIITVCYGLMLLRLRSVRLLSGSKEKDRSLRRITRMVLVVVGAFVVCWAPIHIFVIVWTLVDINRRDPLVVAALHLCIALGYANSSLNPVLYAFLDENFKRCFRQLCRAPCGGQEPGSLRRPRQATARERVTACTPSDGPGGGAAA
Chain of Mu-type opioid receptor (Rattus norvegicus) (P33535 whole entry): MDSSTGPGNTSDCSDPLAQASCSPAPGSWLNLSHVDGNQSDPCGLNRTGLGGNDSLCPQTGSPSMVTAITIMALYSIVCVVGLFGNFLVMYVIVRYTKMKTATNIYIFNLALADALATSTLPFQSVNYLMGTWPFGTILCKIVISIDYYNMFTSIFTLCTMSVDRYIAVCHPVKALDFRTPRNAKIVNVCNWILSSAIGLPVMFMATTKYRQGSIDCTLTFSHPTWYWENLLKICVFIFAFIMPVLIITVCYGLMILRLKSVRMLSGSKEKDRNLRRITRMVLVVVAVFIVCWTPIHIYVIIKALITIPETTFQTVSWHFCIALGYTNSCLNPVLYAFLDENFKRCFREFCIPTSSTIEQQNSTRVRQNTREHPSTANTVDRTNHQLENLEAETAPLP

In the case of `COC(=O)C[C@@H]1CC[C@H](Cc2ccccc2)NC(=O)CCC(CNC(=O)[C@@H](N)Cc2ccc(O)cc2)C(=O)N1` (stereo partly drawn), the figures for the Displacement in assay [1] and in assay [2] were 53% and 50%, respectively. This molecule displayed an ED50 in the assay listed under Mus musculus below 10 µg/mL.
